Data as given in patent US8470842B2, “Hydrochloride salts of 8-[{1-(3,5-Bis-trifluoromethyl)phenyl)-ethoxy}-methyl]-8-phenyl-1,7-diaza-spiro[4.5]decan-2-one and preparation process therefor” (OPKO Health, Inc., priority 2006, dated 2013).
“Also recorded” adds a separate entry of the source. Where a name gives a salt, the structure may show the parent alone.

Assays:
Format in all cases: physicochemical
[1] = Chemical stability tests on storage under humidity and temperature conditions
Experimental: Chemical stability tests were carried out on aliquots of the salt form of interest by placing a accurately weighed sample of the salt form of the compound of Formula I into a polyethylene bag. The bagged samples were enclosed in fiberboard tubes fitted with metal caps which were stored under the indicated conditions of humidity and temperature for the indicated time. Analysis was carried out by dissolving the contents of a vial and quantifying the amount of solute utilizing HPLC analysis. Where noted the aliquots were stored in capped amber vials under the conditions noted instead of polyethylene bags.
(§1) The stability of the crystalline monohydrate hydrochloride salt form of the compound of Formula I was also examined using the procedure described above for samples contained in polyethylene bags by exposing samples to the following conditions: (a) 60% relative humidity (RH) at 4° C. for twelve months, at 25° C. for eighteen months, and at 50° C. for one month; (b) 40° C. and 75% relative humidity (RH) for twelve weeks, and (c) 70° C. at ambient humidity for one hour. Samples of the crystalline monohydrate hydrochloride form I salt were also tested for one cycle of ICH UV/Vis light stress conditions.
(§2) The stability of the crystalline tosylate form I salt form of the compound of Formula I was examined by placing weighed amounts of the salt into clear glass vials and storing them under the indicated conditions. Periodically a vial was removed and the contents examined for decomposition of the compound. Accordingly, samples of the tosylate form I salt were exposed to the following conditions: (a) 40° C. and 75% relative humidity (RH) for four weeks; (b) 50° C. and ambient relative humidity for four weeks; and (c) 70° C. for one hour. Samples of the tosylate form I salt were separately tested for one cycle of ICH UV/Vis light stress conditions.

[2] = Solubility tests (equilibrated slurry, HPLC quantification); conditions: for aqueous solubility: water, pH of 4 or less (more acidic)
Experimental: Solubility tests were conducted by placing an excess of the compound in an aliquot of the solvent of interest and allowing the slurry to equilibrate under the selected temperature conditions (typically ambient). When the solvent was water, pH was adjusted to the desired value with hydrochloric acid and sodium hydroxide. When the slurry mixture had equilibrated, the excess solids were centrifuged (water) or filtered (all other solvents) from the supernatant and the amount of compound which had been dissolved was quantified utilizing HPLC analysis of diluted aliquots of the supernatant liquid. Pharmaceutical grade solvents were employed.

[3] = ICH UV/Vis light stress conditions; conditions: one cycle of ICH UV/Vis light stress conditions
Experimental: as §1, §2

[4] = solvent Ethanol, ambient temperature
[5] = solvent Glycerin, ambient temperature
[6] = solvent PEG 400, ambient temperature
[7] = solvent Propylene Glycol, ambient temperature

Row | Solubility (mg/ml, ambient conditions) [2, 4] | Solubility (mg/ml, ambient conditions) [2, 5] | Solubility (mg/ml, ambient conditions) [2, 6] | Solubility (mg/ml, ambient conditions) [2, 7] | aqueous solubility [2] | temperature up to which the salt is stable ([1]; 70° C. at ambient humidity for one hour, polyethylene bags) | stability under light stress [3] | stability under all tested conditions ([1]; clear glass vials, 40° C./75% RH four weeks, 50° C./ambient RH four weeks, 70° C. one hour, one cycle ICH UV/Vis light stress) | Compound | form change on storage ([1]; storage under ambient conditions of temperature and humidity after dehydration) | stability at ambient/room temperature over relative humidity range ([1]; ambient temperature, about 5% to about 95% relative humidity)
1 |  |  |  |  |  |  |  |  | C[C@@H](OC[C@@]1(c2ccccc2)CC[C@]2(CCC(=O)N2)CN1)c1cc(C(F)(F)F)cc(C(F)(F)F)c1 [anhydrous form I salt, (5S,8S)-8-[{(1R)-1-(3,5-Bis-(trifluoromethyl)phenyl)-ethoxy}-methyl]-8-phenyl-1,7-diazaspiro[4.5]decan-2-one] | returns the crystals to the monohydrate form | 
2 | 185 mg/mL | 16 mg/mL | 20 mg/mL | 160 mg/mL | at least 1.0 mg/ml | about 70 °C | stable under light stress conditions |  | C[C@@H](OC[C@@]1(c2ccccc2)CC[C@]2(CCC(=O)N2)CN1)c1cc(C(F)(F)F)cc(C(F)(F)F)c1 [monohydrate hydrochloride form I salt, (5S,8S)-8-[{(1R)-1-(3,5-Bis-(trifluoromethyl)phenyl)-ethoxy}-methyl]-8-phenyl-1,7-diazaspiro[4.5]decan-2-one] |  | does not decompose or dehydrate; also recorded: stable at room temperature
3 | 75 mg/mL | 2.5 mg/mL | 1.8 mg/mL | 20 mg/mL | at least 0.38 mg/ml |  |  | stable under all tested conditions | C[C@@H](OC[C@@]1(c2ccccc2)CC[C@]2(CCC(=O)N2)CN1)c1cc(C(F)(F)F)cc(C(F)(F)F)c1 [tosylate form I salt, (5S,8S)-8-[{(1R)-1-(3,5-Bis-(trifluoromethyl)phenyl)-ethoxy}-methyl]-8-phenyl-1,7-diazaspiro[4.5]decan-2-one] |  | 
